Experimental data taken from patent publication US10214529B2, “Small molecules for the treatment of primary cancer and cancer metastasis” (THE BOARD OF REGENTS OF THE UNIVERSITY OF TEXAS SYSTEM, priority 2015, dated 2019).

Legend:
MDA-MB-231 cells [1] = assay: Soft agar colony formation assay (anchorage independent cell growth); type: cell-based, human; conditions: 50 μM compound, about 2 weeks
Method: (§1) MDA-MB-231 cells were grown in McCoy's 5A Modified Media (Gibco) supplemented with 10% FBS (Hyclone). Py8119 cells were grown in F12K nutrient media (Gibco) supplemented with 5% Fetal Clone II (Fisher Scientific). All cell lines were incubated in a 5% CO2 incubator at 37° C.
For anchorage-independent cell growth, MDA-MB-231 cells were plated in 0.4% agarose with complete medium supplemented with 50 μM compound (P1 to P10) on top of a 0.8% agarose base supplemented with complete medium. Cells were maintained for about 2 weeks before staining with p-iodonitrotetrazolium violet (Sigma-Aldrich, St. Louis, Mo.). Images were captured by using a scanner and the numbers of colonies were counted.

[2] = tested on: MDA-MB-231 human breast cancer cells; assay: Transwell cell migration assay; type: cell-based; conditions: MDA-MB-231 cells, 18-20 hr
Method: as §1
Migration assays were performed in transwell membrane filter inserts in 24-well tissue culture plates (BD Biosciences San Jose, Calif., USA). The transwell membrane filter inserts contained 6.5-mm diameter, 8-μm pore size, […] polycarbonate membranes. Five-hundred microliter breast cancer cell suspensions were added to the upper side of the inserts at a density of 10×10^4 cells/insert and 750 μl CM with or without other compounds was added to the lower wells. Cells were incubated at 37° C. for 18-20 hr. […] The number of migrated cells in 5 fields of view per insert was counted under a light microscope at magnification 10×.

MDA-MB-231 cells [3] = assay: Mammary fat pad xenograft assay; type: in vivo; conditions: after 15 days; 500 μl of a 400 μM solution, IP three times a week; MDA-MB-231 xenograft in nude mice
Source text: Four-week-old female athymic nude mice (Harlan Sprague-Dawley, Indianapolis, Ind., USA) were used for the mammary fat pad injections. Four- to five-week old female C57bl/6 mice were used for the intratibial injections. Animals were maintained under the care and supervision of the Laboratory Animal Research facility at the University of Texas Health Science Center, San Antonio, Tex. The animal protocol was approved and monitored by the Institutional Animal Care and Use Committee.
MDA-MB-231 cells were injected subcutaneously in the mammary fat pad of 4-week-old female nu/nu athymic nude mice. Each mouse received bilateral subcutaneous inoculation in both the left and right inguinal mammary fat pad areas with 100 μl of cell suspension containing ˜1×10^7 cells/ml in serum-free media. Animals were randomly assigned to 3 different groups, and solid tumors were allowed to form up to about 5 mm^3 volume before treatments began. Compound P3 400 μmol/500 μl saline, or saline as a control was administered intraperitoneally (IP) three times a week for 3 weeks. The growth of xenograft tumors was monitored twice a week and tumor size was measured with a caliper in two dimensions. Tumor volumes were calculated with the equation V=(L×W^2)×0.5 (mm^3), where L is length and W is width of a tumor.

## CCCn1c(=O)c2nc(-c3ccc(OCc4nc5ccccc5[nH]4)cc3)[nH]c2n(CCC)c1=O [Compound P2]
MDA-MB-231 cells [1]
  decrease in cell colonies as compared to control: 30%
[2]
  inhibitory effects on cell migration: inhibitory effects

## CCCn1c(=O)c2nc(-c3ccc(OCc4nc5cc(C(F)(F)F)ccc5[nH]4)cc3)[nH]c2n(CCC)c1=O [Compound P3]
MDA-MB-231 cells [1]
  decrease in cell colonies as compared to control: 65%
MDA-MB-231 cells [3]
  reduction in the tumor size compared to control mice: more than 50%
[2]
  inhibitory effects on cell migration: inhibitory effects

## CCCn1c(=O)c2nc(-c3ccc(OCc4nc5cc(F)ccc5[nH]4)cc3)[nH]c2n(CCC)c1=O [Compound P4]
[2]
  inhibitory effects on cell migration: inhibitory effects

## CCCn1c(=O)c2nc(-c3ccc(OCc4nc5cc(C)ccc5[nH]4)cc3)[nH]c2n(CCC)c1=O [Compound P5]
[2]
  inhibitory effects on cell migration: inhibitory effects

## CCOc1ccc(-c2nc3c(N)ncnc3n2CC2CCC2)cc1 [Compound P9]
[2]
  inhibitory effects on cell migration: inhibitory effects
